Source: patent US20250243208A1, “BICYCLIC HETEROCYCLES AS MRGPRX2 ANTAGONISTS” (Incyte Corporation, priority 2024, published 2025)

target: T1, MRGPRX2 (Homo sapiens, UniProt Q96LB1); assay: MRGPRX2 β-Arrestin recruitment assay (PathHunter CHO-K1); type: cell-based; set-up: host or cells: PathHunter CHO-K1; details: PathHunter CHO-K1 cells, agonist Cortistatin 14 0.25 μM
T1 sequence (Q96LB1 1-330): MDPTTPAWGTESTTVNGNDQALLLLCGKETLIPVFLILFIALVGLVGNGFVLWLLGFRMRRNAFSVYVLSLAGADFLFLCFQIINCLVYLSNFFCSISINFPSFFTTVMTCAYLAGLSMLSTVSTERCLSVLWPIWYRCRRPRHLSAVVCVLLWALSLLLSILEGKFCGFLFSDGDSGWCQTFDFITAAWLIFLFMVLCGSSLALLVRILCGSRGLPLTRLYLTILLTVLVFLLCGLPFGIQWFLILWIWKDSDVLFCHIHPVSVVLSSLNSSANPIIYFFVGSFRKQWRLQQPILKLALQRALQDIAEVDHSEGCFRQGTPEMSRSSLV
Text: Example C: MRGPRX2 β-Arrestin Assay
This assay measures compound inhibition of β-Arrestin recruitment, which is part of the G protein-independent pathway that results from the ligand-activated GPCR phosphorylation by specific GPCR kinases. The PathHunter CHO-K1 MRPGRX2 B-Arrestin Cell line stably expressing ProLink tagged MRGPRX2 and Enzyme Acceptor Tagged B-Arrestin was purchased from Eurofins DiscoverX, (Fremont, CA).
The cells were maintained in culture medium from the Europhins DiscoverX Cell Culture Kit-107 which includes FBS, hygromycin B and G418. For the assay, the cells were harvested and were resuspended with Cell Plating Reagent 2 (Eurofins DiscoverX). Cells were added 10000 cells in 25 μL/well to a 384-well black cell culture plate (Greiner VWR, Radnor, PA) which contained 125 nL/well of compound at a selected serially diluted concentration range or DMSO. The plate was incubated at 37° C. with 5% CO2 for 1 h. 2 μL/well of agonist Cortistatin 14 was diluted in Protein Dilution Buffer, (Eurofins DiscoverX) for a final concentration of 0.25 μM, was added and the plate was incubated at 37° C. with 5% CO2 for 90 min. 14 μL/well of Detection Reagent Mix (PathHunter Detection Kit, Eurofins DiscoverX) was added to the plates and further incubated for 1 h in the dark. Plates were read on the PHERAstar microplate reader (BMG Labtech Cary, NC) measuring luminescence 0.1 to 1 s per well. Data was normalized using DMSO only wells and wells with high concentration of reference antagonist as controls. Compound IC50 curves were globally fitted with 3- or 4-parameter Hill equation in a Genedata Screener (Genedata Basel, Switzerland).

IC50, 0.1 to 100 nM:
C[C@@]1(O)CCN(C(CNc2cc(C(F)(F)F)nc3cc(C(F)(F)F)nn23)c2ccc(F)cc2)C1 (mixture of isomers) [Example 30, (3R)-1-(2-((2,5-Bis(trifluoromethyl)pyrazolo[1,5-a]pyrimidin-7-yl)amino)-1-(4-fluorophenyl)ethyl)-3-methylpyrrolidin-3-ol]
CC(CNc1cc(C(F)(F)F)nc2cc(C(F)(F)F)nn12)(c1ccc(F)cc1)C1CCN(C(N)=O)C1 (single isomer, unassigned) [Example 4, 3-(1-((2,5-Bis(trifluoromethyl)pyrazolo[1,5-a]pyrimidin-7-yl)amino)-2-(4-fluorophenyl)propan-2-yl)pyrrolidine-1-carboxamide]
O=C1NC2(CO1)CN(C(CNc1cc(C(F)(F)F)nc3cc(C(F)(F)F)nn13)c1ccc(F)cc1)C2 (racemic) [Example 42, 2-(2-((2,5-Bis(trifluoromethyl)pyrazolo[1,5-a]pyrimidin-7-yl)amino)-1-(4-fluorophenyl)ethyl)-7-oxa-2,5-diazaspiro[3.4]octan-6-one]
OC1CCC12CN(C(CNc1cc(C(F)(F)F)nc3cc(C(F)(F)F)nn13)c1ccc(F)cc1)C2 (mixture of isomers) [Example 34, 2-(2-((2,5-Bis(trifluoromethyl)pyrazolo[1,5-a]pyrimidin-7-yl)amino)-1-(4-fluorophenyl)ethyl)-2-azaspiro[3.3]heptan-5-ol]
Cn1nc(N2CC(C(C)(CNc3cc(C(F)(F)F)nc4cc(C(F)(F)F)nn34)c3ccc(F)cc3)C2)ccc1=O (racemic) [Example 12, 6-(3-(1-((2,5-Bis(trifluoromethyl)pyrazolo[1,5-a]pyrimidin-7-yl)amino)-2-(4-fluorophenyl)propan-2-yl)azetidin-1-yl)-2-methylpyridazin-3(2H)-one]
OC[C@H]1CCN(C(CNc2cc(C(F)(F)F)nc3cc(C(F)(F)F)nn23)c2ccc(F)cc2)C1 (mixture of isomers) [Example 31, ((3S)-1-(2-((2,5-Bis(trifluoromethyl)pyrazolo[1,5-a]pyrimidin-7-yl)amino)-1-(4-fluorophenyl)ethyl)pyrrolidin-3-yl)methanol]
Fc1ccc(C(CNc2cc(C(F)(F)F)nc3cc(C(F)(F)F)nn23)N2CC(c3ccccn3)C2)cc1 (racemic) [Example 24, N-(2-(4-Fluorophenyl)-2-(3-(pyridin-2-yl)azetidin-1-yl)ethyl)-2,5-bis(trifluoromethyl)pyrazolo[1,5-a]pyrimidin-7-amine]
CC(CNc1cc(C(F)(F)F)nc2cc(C(F)(F)F)nn12)(c1ccc(F)cc1)C1CCN(C(N)=O)CC1 (racemic) [Example 2, 4-(1-((2,5-Bis(trifluoromethyl)pyrazolo[1,5-a]pyrimidin-7-yl)amino)-2-(4-fluorophenyl)propan-2-yl)piperidine-1-carboxamide]
Cn1cc(NC2CN(C(CNc3cc(C(F)(F)F)nc4cc(C(F)(F)F)nn34)c3ccc(F)cc3)C2)nn1 (racemic) [Example 27, N-(2-(4-Fluorophenyl)-2-(3-((1-methyl-1H-1,2,3-triazol-4-yl)amino)azetidin-1-yl)ethyl)-2,5-bis(trifluoromethyl)pyrazolo[1,5-a]pyrimidin-7-amine]
CC(CNc1cc(C(F)(F)F)nc2cc(C(F)(F)F)nn12)(c1ccc(F)cc1)C1CCN(C(N)=O)C1 (single isomer, unassigned) [Example 3, 3-(1-((2,5-Bis(trifluoromethyl)pyrazolo[1,5-a]pyrimidin-7-yl)amino)-2-(4-fluorophenyl)propan-2-yl)pyrrolidine-1-carboxamide]
NC(=O)N1CCC(C(CNc2cc(C(F)(F)F)nc3cc(C(F)(F)F)nn23)c2ccc(F)cc2)CC1 (racemic) [Example 15, 4-(2-((2,5-Bis(trifluoromethyl)pyrazolo[1,5-a]pyrimidin-7-yl)amino)-1-(4-fluorophenyl)ethyl)piperidine-1-carboxamide]
OC1CCC2(CC1)CN(C(CNc1cc(C(F)(F)F)nc3cc(C(F)(F)F)nn13)c1ccc(F)cc1)C2 (racemic) [Example 23, 2-(2-((2,5-Bis(trifluoromethyl)pyrazolo[1,5-a]pyrimidin-7-yl)amino)-1-(4-fluorophenyl)ethyl)-2-azaspiro[3.5]nonan-7-ol]
O=C(CO)N1CC2(C1)CN(C(CNc1cc(C(F)(F)F)nc3cc(C(F)(F)F)nn13)c1ccc(F)cc1)C2 (racemic) [Example 39, 1-(6-(2-((2,5-Bis(trifluoromethyl)pyrazolo[1,5-a]pyrimidin-7-yl)amino)-1-(4-fluorophenyl)ethyl)-2,6-diazaspiro[3.3]heptan-2-yl)-2-hydroxyethan-1-one]
O=C1CCC2(CN(C(CNc3cc(C(F)(F)F)nc4cc(C(F)(F)F)nn34)c3ccc(F)cc3)C2)N1 (racemic) [Example 32, 2-(2-((2,5-Bis(trifluoromethyl)pyrazolo[1,5-a]pyrimidin-7-yl)amino)-1-(4-fluorophenyl)ethyl)-2,5-diazaspiro[3.4]octan-6-one]
Cn1ccnc1NC1CN(C(CNc2cc(C(F)(F)F)nc3cc(C(F)(F)F)nn23)c2ccc(F)cc2)C1 (racemic) [Example 28, N-(2-(4-Fluorophenyl)-2-(3-((1-methyl-1H-imidazol-2-yl)amino)azetidin-1-yl)ethyl)-2,5-bis(trifluoromethyl)pyrazolo[1,5-a]pyrimidin-7-amine]
O=C(NCC(F)(F)F)N1CC2(C1)CN(C(CNc1cc(C(F)(F)F)nc3cc(C(F)(F)F)nn13)c1ccc(F)cc1)C2 (racemic) [Example 41, 6-(2-((2,5-Bis(trifluoromethyl)pyrazolo[1,5-a]pyrimidin-7-yl)amino)-1-(4-fluorophenyl)ethyl)-N-(2,2,2-trifluoroethyl)-2,6-diazaspiro[3.3]heptane-2-carboxamide]
NC(=O)N1CC(C(CO)(CNc2cc(C(F)(F)F)nc3cc(C(F)(F)F)nn23)c2ccc(F)cc2)C1 (racemic) [Example 21, 3-(1-((2,5-Bis(trifluoromethyl)pyrazolo[1,5-a]pyrimidin-7-yl)amino)-2-(4-fluorophenyl)-3-hydroxypropan-2-yl)azetidine-1-carboxamide]
NC(=O)N1CC2(CCN(C(CNc3cc(C(F)(F)F)nc4cc(C(F)(F)F)nn34)c3ccc(F)cc3)C2)C1 (racemic) [Example 33, 6-(2-((2,5-Bis(trifluoromethyl)pyrazolo[1,5-a]pyrimidin-7-yl)amino)-1-(4-fluorophenyl)ethyl)-2,6-diazaspiro[3.4]octane-2-carboxamide]
OC1CC2CC1CN2C(CNc1cc(C(F)(F)F)nc2cc(C(F)(F)F)nn12)c1ccc(F)cc1 (stereo not shown) [Example 22, 2-(2-((2,5-Bis(trifluoromethyl)pyrazolo[1,5-a]pyrimidin-7-yl)amino)-1-(4-fluorophenyl)ethyl)-2-azabicyclo[2.2.1]heptan-5-ol]
N#CC1(C(=O)N2CC3(C2)CN(C(CNc2cc(C(F)(F)F)nc4cc(C(F)(F)F)nn24)c2ccc(F)cc2)C3)CC1 (racemic) [Example 38, 1-(6-(2-((2,5-Bis(trifluoromethyl)pyrazolo[1,5-a]pyrimidin-7-yl)amino)-1-(4-fluorophenyl)ethyl)-2,6-diazaspiro[3.3]heptane-2-carbonyl)cyclopropane-1-carbonitrile]
CCC(CNc1cc(C(F)(F)F)nc2cc(C(F)(F)F)nn12)(c1ccc(F)cc1)C1CN(C(N)=O)C1 (racemic) [Example 1, 3-(1-((2,5-Bis(trifluoromethyl)pyrazolo[1,5-a]pyrimidin-7-yl)amino)-2-(4-fluorophenyl)butan-2-yl)azetidine-1-carboxamide]
[2H]C([2H])([2H])NC(=O)N1CC2(C1)CN(C(CNc1cc(C(F)(F)F)nc3cc(C(F)(F)F)nn13)c1ccc(F)cc1)C2 (racemic) [Example 40, 6-(2-((2,5-Bis(trifluoromethyl)pyrazolo[1,5-a]pyrimidin-7-yl)amino)-1-(4-fluorophenyl)ethyl)-N-(methyl-d3)-2,6-diazaspiro[3.3]heptane-2-carboxamide]
